# Laboratory results reported in ChEMBL document CHEMBL4616673 (J Med Chem, 2020).
# pIC50, pKi: −log10 of the molar value.
# Legend:
# K562 = assay: Antiproliferative activity against human K562 cells assessed as reduction in cell viability measured after 48 hrs by MTT assay; assay type: functional, cell-based; settings: Homo sapiens, K562, 48 h
# HCT-116 = assay: Antiproliferative activity against human HCT116 cells assessed as reduction in cell viability measured after 48 hrs by MTT assay; assay type: functional, cell-based; settings: Homo sapiens, HCT-116, 48 h
# [1] = Solubility of the compound in PBS; assay type: physicochemical
# [2] = target: T1, Dihydroorotate dehydrogenase (quinone), mitochondrial (Homo sapiens, UniProt Q02127); assay: Inhibition of human DHODH using dihydroorotate as substrate and CoQ10 as co-substrate preincubated for 30 mins followed by substrate addition by DCIP coupled microplate reader assay
# A549 = assay: Antiproliferative activity against human A549 cells assessed as reduction in cell viability measured after 48 hrs by MTT assay; assay type: functional, cell-based; settings: Homo sapiens, A549, 48 h
# A-375 = assay: Antiproliferative activity against human A375 cells assessed as reduction in cell viability measured after 48 hrs by MTT assay; assay type: functional, cell-based; settings: Homo sapiens, A-375, 48 h
# Raji = assay: Antiproliferative activity against human Raji cells assessed as reduction in cell viability measured after 48 hrs by MTT assay; assay type: functional, cell-based; settings: Homo sapiens, Raji, 48 h
# HeLa = assay: Antiproliferative activity against human HeLa cells assessed as reduction in cell viability measured after 48 hrs by MTT assay; assay type: functional, cell-based; settings: Homo sapiens, HeLa, 48 h
# MCF7 = assay: Antiproliferative activity against human MCF7 cells assessed as reduction in cell viability measured after 48 hrs by MTT assay; assay type: functional, cell-based; settings: Homo sapiens, MCF7, 48 h
# NAMALVA = assay: Antiproliferative activity against human NAMALWA cells assessed as reduction in cell viability measured after 48 hrs by MTT assay; assay type: functional, cell-based; settings: Homo sapiens, NAMALVA, 48 h
# [3] = target: T1, Dihydroorotate dehydrogenase (quinone), mitochondrial; assay: Inhibition of recombinant human DHODH expressed in baculovirus infected insect cells using dihydroorotate as substrate and decylubiquinone as co-substrate by 2,6-dichlorophenol-indophenol-coupled spectrophotometric analysis
# [4] = Competitive inhibition of Plasmodium falciparum DHODH
# T1 sequence (Q02127 whole entry): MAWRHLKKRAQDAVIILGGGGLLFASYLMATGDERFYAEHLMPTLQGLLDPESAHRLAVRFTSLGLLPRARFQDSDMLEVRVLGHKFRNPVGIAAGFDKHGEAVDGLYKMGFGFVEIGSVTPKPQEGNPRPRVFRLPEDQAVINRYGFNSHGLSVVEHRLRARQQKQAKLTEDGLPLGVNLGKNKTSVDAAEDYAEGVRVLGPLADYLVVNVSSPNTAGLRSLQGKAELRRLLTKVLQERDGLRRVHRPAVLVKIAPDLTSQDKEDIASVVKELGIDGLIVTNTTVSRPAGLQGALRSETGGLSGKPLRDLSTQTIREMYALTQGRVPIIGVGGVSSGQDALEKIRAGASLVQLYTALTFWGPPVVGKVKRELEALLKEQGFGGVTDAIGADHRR
compound,measurement,setting,value
Nc1cccc(-c2ccc(-n3nnc4c3C(=O)c3ccccc3C4=O)cc2)c1,pIC50,K562,< 5.00
same,pIC50,HCT-116,6.06
same,solubility,[1],< 10 µg/mL
same,pIC50,[2],8.51
same,pIC50,A549,< 5.00
same,pIC50,A-375,6.60
same,pIC50,Raji,5.87
same,pIC50,HeLa,< 5.00
same,pIC50,MCF7,< 5.00
same,pIC50,NAMALVA,< 5.00
O=C1c2ccccc2C(=O)c2c1nnn2-c1ccc(-c2cncnc2)cc1,pIC50,[2],< 6.00
COC(=O)Cc1cccc(-c2c(F)cc(-n3nnc4c3C(=O)c3ccccc3C4=O)cc2F)c1,pIC50,K562,5.62
same,pIC50,HCT-116,5.79
same,solubility,[1],< 10 µg/mL
same,pIC50,[2],8.34
same,pIC50,A549,< 5.00
same,pIC50,A-375,6.38
same,pIC50,Raji,5.42
same,pIC50,HeLa,< 5.00
same,pIC50,MCF7,< 5.00
same,pIC50,NAMALVA,< 5.00
O=C1c2ccccc2C(=O)c2c1nnn2-c1ccc(-c2cccnc2)cc1,pIC50,[2],6.37
O=C1c2cc(O)ccc2C(=O)c2c1nnn2-c1cc(F)c(-c2ccccc2F)c(F)c1,pIC50,[2],< 6.00
CC(C)c1ccc(-c2cc(F)c(-n3nnc4c3C(=O)c3ccccc3C4=O)c(F)c2)cc1,pIC50,[2],< 6.00
CC(C)c1ccc(-c2c(F)cc(-n3nnc4c3C(=O)c3ccccc3C4=O)cc2F)cc1,pIC50,[2],7.12
O=C1c2ccccc2C(=O)c2c1nnn2-c1ccc(-c2ccccc2O)cc1,pIC50,[2],6.64
O=C1c2ccccc2C(=O)c2c1nnn2-c1ccc(-c2cccc(O)c2)cc1,pIC50,K562,5.15
same,pIC50,HCT-116,< 5.00
same,pIC50,[2],7.68
same,pIC50,A549,< 5.00
same,pIC50,A-375,< 5.00
same,pIC50,Raji,5.04
same,pIC50,HeLa,< 5.00
same,pIC50,MCF7,< 5.00
same,pIC50,NAMALVA,< 5.00
CN(C)c1cccc(-c2c(F)cc(-n3nnc4c3C(=O)c3ccccc3C4=O)cc2F)c1,pIC50,K562,< 5.00
same,pIC50,HCT-116,6.39
same,solubility,[1],< 10 µg/mL
same,pIC50,[2],9.30
same,pIC50,A549,< 5.00
same,pIC50,A-375,7.70
same,pIC50,Raji,5.67
same,pIC50,HeLa,5.69
same,pIC50,MCF7,< 5.00
same,pIC50,NAMALVA,< 5.00
O=C1c2ccccc2C(=O)c2c1nnn2-c1cc(F)c(-c2ccc(F)cc2)c(F)c1,pIC50,K562,< 5.00
same,pIC50,HCT-116,5.65
same,pIC50,[2],8.16
same,pIC50,A549,< 5.00
same,pIC50,A-375,5.80
same,pIC50,Raji,< 5.00
same,pIC50,HeLa,< 5.00
same,pIC50,MCF7,< 5.00
same,pIC50,NAMALVA,< 5.00
O=C1c2ccc(O)cc2C(=O)c2c1nnn2-c1cc(F)c(-c2ccccc2F)c(F)c1,pIC50,[2],< 6.00
O=C1c2ccccc2C(=O)c2c1nnn2-c1cc(F)c(-c2cccc(F)c2)c(F)c1,pIC50,K562,< 5.00
same,pIC50,HCT-116,6.26
same,solubility,[1],< 10 µg/mL
same,pIC50,[2],8.57
same,pIC50,A549,< 5.00
same,pIC50,A-375,6.72
same,pIC50,Raji,5.82
same,pIC50,HeLa,< 5.00
same,pIC50,MCF7,< 5.00
same,pIC50,NAMALVA,< 5.00
CC(C)c1ccc(-n2nnc3c2C(=O)c2ccccc2C3=O)cc1,pIC50,[2],6.25
Nc1ccccc1-c1ccc(-n2nnc3c2C(=O)c2ccccc2C3=O)cc1,pIC50,K562,5.67
same,pIC50,HCT-116,5.64
same,pIC50,[2],7.70
same,pIC50,A549,< 5.00
same,pIC50,A-375,5.71
same,pIC50,Raji,5.42
same,pIC50,HeLa,< 5.00
same,pIC50,MCF7,< 5.00
same,pIC50,NAMALVA,5.30
O=C1c2ccccc2C(=O)c2c1nnn2-c1ccccc1C(F)(F)F,pIC50,[2],< 6.00
CC1(C)CC(=O)c2nnn(-c3cc(F)c(-c4ccccc4F)c(F)c3)c2C1,pIC50,[2],< 6.00
CC(C)C1CC(=O)c2nnn(-c3cc(F)c(-c4ccccc4F)c(F)c3)c2C1 (stereo not drawn),pIC50,[2],6.28
COc1ccccc1-n1nnc2c1C(=O)c1ccccc1C2=O,pIC50,[2],< 6.00
COc1ccc2c(c1)C(=O)c1nnn(-c3cc(F)c(-c4ccccc4F)c(F)c3)c1C2=O,pIC50,[2],< 6.00
O=C1CCCc2c1nnn2-c1cc(F)c(-c2ccccc2F)c(F)c1,pIC50,[2],< 6.00
CC(C)c1ccc(-c2ccc(-n3nnc4c3C(=O)c3ccccc3C4=O)c(F)c2)cc1,pIC50,[2],< 6.00
O=C1c2ccccc2C(=O)c2c1nnn2-c1cc(F)c(-c2cccc(CO)c2)c(F)c1,pIC50,K562,< 5.00
same,pIC50,HCT-116,5.66
same,solubility,[1],14.6 µg/mL
same,pIC50,[2],8.92
same,pIC50,A549,< 5.00
same,pIC50,A-375,7.52
same,pIC50,Raji,5.48
same,pIC50,HeLa,< 5.00
same,pIC50,MCF7,< 5.00
same,pIC50,NAMALVA,< 5.00
Cc1ccc(-n2nnc3c2C(=O)c2ccccc2C3=O)cc1C(F)(F)F,pIC50,[2],< 6.00
O=C1c2ccccc2C(=O)c2c1nnn2-c1ccc(-c2ccccc2)cc1,pIC50,K562,< 5.00
same,pIC50,HCT-116,5.37
same,pIC50,[2],7.72
same,pIC50,A549,< 5.00
same,pIC50,A-375,5.23
same,pIC50,Raji,5.34
same,pIC50,HeLa,< 5.00
same,pIC50,MCF7,< 5.00
same,pIC50,NAMALVA,5.73
O=C1C(O)=C(CC=C(Cl)Cl)C(=O)c2ccccc21,pIC50,[3],7.17
Cc1cc(-c2ccc(-n3nnc4c3C(=O)c3ccccc3C4=O)cc2)ccn1,pIC50,[2],< 6.00
N#Cc1cccc(-n2nnc3c2C(=O)c2ccccc2C3=O)c1,pIC50,[2],< 6.00
O=C1c2ccccc2C(=O)c2c1nnn2-c1cccc(I)c1,pIC50,[2],< 6.00
Cc1cc(-n2nnc3c2C(=O)c2ccccc2C3=O)ccc1F,pIC50,[2],< 6.00
O=C1c2ccccc2C(=O)c2c1nnn2-c1ccc2c(c1)OCO2,pIC50,[2],< 6.00
COc1ccc2c(c1)C(=O)c1c(nnn1-c1cc(F)c(-c3ccccc3F)c(F)c1)C2=O,pIC50,[2],< 6.00
O=C1c2ccc(F)cc2C(=O)c2c1nnn2-c1cc(F)c(-c2ccccc2F)c(F)c1,pIC50,[2],6.82
Fc1ccccc1-c1c(F)cc(-n2cc(-c3ccccc3)nn2)cc1F,pIC50,[2],< 6.00
O=C1c2ccccc2C(=O)c2c1nnn2-c1nc2ccccc2[nH]1,pIC50,[2],< 6.00
O=C1c2ccccc2C(=O)c2c1nnn2-c1ccncc1,pIC50,[2],< 6.00
O=C1c2ccccc2C(=O)c2c1nnn2-c1ccc2ccccc2c1,pIC50,[2],< 6.00
O=C1c2cc(F)ccc2C(=O)c2c1nnn2-c1cc(F)c(-c2ccccc2F)c(F)c1,pIC50,[2],7.01
O=C1c2ccccc2C(=O)c2c1nnn2-c1ccc(-c2ccncc2)cc1,pIC50,[2],< 6.00
Nc1ccc(-c2ccc(-n3nnc4c3C(=O)c3ccccc3C4=O)cc2)cc1,pIC50,K562,6.62
same,pIC50,HCT-116,< 5.00
same,pIC50,[2],7.60
same,pIC50,A549,< 5.00
same,pIC50,A-375,5.72
same,pIC50,Raji,< 5.00
same,pIC50,HeLa,< 5.00
same,pIC50,MCF7,< 5.00
same,pIC50,NAMALVA,< 5.00
O=C1c2ccccc2C(=O)c2c1nnn2-c1ccc(-c2ccccc2F)cc1,pIC50,K562,5.73
same,pIC50,HCT-116,5.48
same,solubility,[1],< 10 µg/mL
same,pIC50,[2],8.35
same,pIC50,A549,< 5.00
same,pIC50,A-375,5.53
same,pIC50,Raji,5.65
same,pIC50,HeLa,< 5.00
same,pIC50,MCF7,< 5.00
same,pIC50,NAMALVA,5.55
N#Cc1ccccc1-n1nnc2c1C(=O)c1ccccc1C2=O,pIC50,[2],< 6.00
O=C1c2ccccc2C(=O)c2c1nnn2-c1ccc(-c2cc(C(F)(F)F)cc(C(F)(F)F)c2)cc1,pIC50,[2],< 6.00
O=C1c2ccccc2C(=O)c2c1nnn2-c1ccnc(Cl)c1,pIC50,[2],< 6.00
O=C1c2ccccc2C(=O)c2c1nnn2-c1cccc(O)c1,pIC50,[2],< 6.00
COc1cccc(-c2ccc(-n3nnc4c3C(=O)c3ccccc3C4=O)cc2)c1,pIC50,[2],7.00
COc1cc(-c2ccc(-n3nnc4c3C(=O)c3ccccc3C4=O)cc2)cc(OC)c1OC,pIC50,[2],< 6.00
O=C1c2ccccc2C(=O)c2c1nnn2-c1ccc(-c2cccc(F)c2)cc1,pIC50,[2],7.25
COCc1cccc(-c2c(F)cc(-n3nnc4c3C(=O)c3ccccc3C4=O)cc2F)c1,pIC50,K562,< 5.00
same,pIC50,HCT-116,5.95
same,solubility,[1],< 10 µg/mL
same,pIC50,[2],8.80
same,pIC50,A549,< 5.00
same,pIC50,A-375,6.74
same,pIC50,Raji,5.91
same,pIC50,HeLa,< 5.00
same,pIC50,MCF7,< 5.00
same,pIC50,NAMALVA,< 5.00
COc1cc(-n2nnc3c2C(=O)c2ccccc2C3=O)ccc1-c1ccccc1,pIC50,K562,6.68
same,pIC50,HCT-116,6.74
same,solubility,[1],15.4 µg/mL
same,pIC50,[2],8.39
same,pIC50,A549,< 5.00
same,pIC50,A-375,8.00
same,pIC50,Raji,6.10
same,pIC50,HeLa,< 5.00
same,pIC50,MCF7,< 5.00
same,pIC50,NAMALVA,< 5.00
COC(=O)c1cccc(-c2ccc(-n3nnc4c3C(=O)c3ccccc3C4=O)cc2)c1,pIC50,[2],6.26
Nc1cccc(-n2nnc3c2C(=O)c2ccccc2C3=O)c1,pIC50,[2],< 6.00
O=C1C(O)=C([C@H]2CC[C@H](c3ccc(Cl)cc3)CC2)C(=O)c2ccccc21 [ATOVAQUONE],pKi,[4],4.57
O=C1c2ccccc2C(=O)c2c1nnn2-c1ccc(Cl)nc1,pIC50,[2],< 6.00
O=C1c2ccccc2C(=O)c2c1nnn2-c1cc(F)c(-c2cccc(CO)c2F)c(F)c1,pIC50,K562,< 5.00
same,pIC50,HCT-116,6.82
same,solubility,[1],17.6 µg/mL
same,pIC50,[2],8.92
same,pIC50,A549,< 5.00
same,pIC50,A-375,7.52
same,pIC50,Raji,< 5.00
same,pIC50,HeLa,< 5.00
same,pIC50,MCF7,< 5.00
same,pIC50,NAMALVA,< 5.00
OC1c2ccccc2C(O)c2c1nnn2-c1cc(F)c(-c2ccccc2F)c(F)c1 (stereo not drawn),pIC50,K562,< 5.00
same,pIC50,HCT-116,6.24
same,solubility,[1],< 10 µg/mL
same,pIC50,[2],8.29
same,pIC50,A549,< 5.00
same,pIC50,A-375,6.80
same,pIC50,Raji,< 5.00
same,pIC50,HeLa,< 5.00
same,pIC50,MCF7,< 5.00
same,pIC50,NAMALVA,< 5.00
O=C(c1ccccc1)c1cn(-c2cc(F)c(-c3ccccc3F)c(F)c2)nn1,pIC50,[2],< 6.00
O=C1c2ccccc2C(=O)c2c1nnn2-c1ccc(N2CCOCC2)nc1,pIC50,[2],< 6.00
